The source of these data is PMC6968685 (Journal of Enzyme Inhibition and Medicinal Chemistry, 2020).

Where a name gives a salt, the structure may show the parent alone. Some results are limits rather than exact numbers.

Series [1] relates to T. brucei brucei AnTat 1.9. Description: In vitro antitrypanosomal activity, Alamar Blue assay. The class given is cell-based. Conditions: for Selectivity index HepG2/Tryp.: SI = CC50 HepG2 / IC50 Trypanosoma brucei brucei; for IC50: Trypanosoma brucei, slender bloodstream trypomastigotes, AnTat 1.9 strain, read-out: Trypanosoma brucei brucei IC50 values, Trypanos Antat 1.9. The method, boiled down:
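Viability read-out: resazurin (Alamar Blue) fluorescence, 530 nm excitation/590 nm emission, after 5 h dye exposure following 69 h compound incubation at 37 °C, 5% CO2, 2000 parasites per well, doses in duplicate. IC50 values fitted nonlinearly, three independent runs.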
(In general: The colour change of resazurin is a common sign of viable cells or microbes.)

For series [2], the system named is P. falciparum CQ-resistant strain W2. Nature of the series: In vitro antiplasmodial activity, SYBR Green I fluorescence-based method, strain W2. The class given is cell-based. The following applies: for IC50: Plasmodium falciparum, chloroquine-resistant strain W2, 48 h incubation, read-out: P. falciparum strains IC50 values, W2; for Selectivity index HepG2/W2: SI = CC50 HepG2 / IC50 P. falciparum W2. The method, then: The in vitro antiplasmodial activities were tested over concentrations ranging from […] against culture-adapted P. falciparum reference strains 3D7 and W2. […] The parasites were cultivated in RPMI medium (Sigma-Aldrich, Lyon, France) supplemented with 0.5% Albumax I (Life Technologies Corporation, Paisley, UK), hypoxanthine (Sigma-Aldrich), and gentamicin (Sigma-Aldrich) with human erythrocytes and were incubated at 37 °C in a candle jar, as described previously[43] .The P. falciparum drug susceptibility test was carried out in 96-well flat-bottom sterile plates in a final volume of 250 µl. After 48 h incubation period with the drugs, quantities of DNA in treated and control cultures of parasites in human erythrocytes were quantified using the SYBR Green I (Sigma-Aldrich) fluorescence-based method[44]^,[45]. Briefly, after incubation, plates were frozen at −20 °C until use. Plates were then thawed for 2 h at room temperature, and 100 µl of each homogenised culture was transferred to a well of a 96-well flat-bottom sterile black plate (Nunc, Inc., Rochester, NY) that contained 100 µl of the SYBR Green I lysis buffer (2xSYBR Green, 20 mM Tris base pH 7.5, 5 mM EDTA, 0.008% w/v saponin, 0.08% w/v Triton X-100). […] Plates were incubated for 1 h at room temperature and then read on a fluorescence plate reader (Tecan, Grödig, Austria) using excitation and emission wavelengths of 485 and 535 nm, respectively. IC50 values were calculated by non-linear regression analysis of data from dose-response curves, using TableCurve 2D version 5.0 software (Systat Software, San Jose, CA). IC50 values are reported as means calculated from three independent experiments.

Series [3] relates to P. falciparum CQ-sensitive strain 3D7. Nature of the series: In vitro antiplasmodial activity, SYBR Green I fluorescence-based method, strain 3D7. In kind it is cell-based. The following applies: for IC50: Plasmodium falciparum, chloroquine-sensitive strain 3D7, 48 h incubation, read-out: P. falciparum strains IC50 values, 3D7; for Selectivity index HepG2/3D7: SI = CC50 HepG2 / IC50 P. falciparum 3D7. In short, it runs like this: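 P. falciparum 3D7 and W2 cultured in human erythrocytes in RPMI with 0.5% Albumax I at 37 °C, exposed 48 h to compounds tested […]. Parasite DNA read by SYBR Green I fluorescence (ex 485/em 535 nm); IC50 by non-linear regression, mean of three independent experiments.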

Series [4] deals with L. donovani (MHOM/IN/00/DEVI) promastigotes. Description: In vitro antileishmanial activity, MTT assay on promastigotes. In kind it is cell-based. The following applies: Leishmania donovani, 72 h incubation, ≥10 = no activity noted at the highest concentration tested. The method, boiled down:
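Log-phase L. donovani MHOM/IN/00/DEVI promastigotes (10^6/ml, Schneider's + 20% FCS) were exposed to graded compound concentrations (DMSO <0.5% v/v) for 72 h at 27 °C, in duplicate. Growth measured by MTT reduction (4 h, A570 nm); IC50 obtained by regression.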
(Tetrazolium dyes change colour on reduction, which living cells bring about.)

Series [5] in a line: Cytotoxicity evaluation, MTT. In kind it is cell-based, human. Conditions: human. The method, boiled down: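 HepG2 hepatocarcinoma cells exposed to compound in duplicate, then viability measured by MTT reduction (0.5 mg/ml), formazan dissolved in DMSO and read at 570 nm against 630 nm. Viability expressed as percent of untreated cells; CC50 taken from dose-response curve, doxorubicin as positive control.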

Broadly, the melting point is the temperature, or range, at which the solid turns liquid. As to `COc1ccc2c(-c3ccc(CNCCCN(C)C)cc3)cc(-c3ccc(CNCCCN(C)C)cc3)nc2c1` (as salt: (cooh)2) [Compound 1n, 7-Methoxy-2,4-bis{4-[(3-dimethylaminopropyl)aminomethyl]phenyl}quinoline], the melting point fell in the range of 237 to 239 °C.

The compound `COc1ccc2c(-c3ccc(CNCCCCN(C)C)cc3)nc(-c3ccc(CNCCCCN(C)C)cc3)cc2c1` (as salt: (cooh)2) [Compound 2i, 6-Methoxy-1,3-bis{4-[(4-dimethylaminobutyl)aminomethyl]phenyl}isoquinoline] displayed a melting point of 135 to 137 °C.

Regarding `COc1ccc2nc(-c3ccc(CNCCCN(C)C)cc3)cc(-c3ccc(CNCCCN(C)C)cc3)c2c1` (as salt: (cooh)2) [Compound 1j, 6-Methoxy-2,4-bis{4-[(3-dimethylaminopropyl)aminomethyl]phenyl}quinoline], the melting point was 224 to 226 °C.

In turn, `CN1CCN(CCCCNCc2ccc(-c3nc(-c4ccc(CNCCCCN5CCN(C)CC5)cc4)c4ccccc4n3)cc2)CC1` (as salt: (cooh)2) [Compound 3d, 2,4-Bis{4-[(4–(4-methylpiperazin-1-yl)butyl)aminomethyl]phenyl}quinazoline] yielded a melting point of 223 to 225 °C.

`CN(C)CCCNCc1cccc(-c2cc(-c3cccc(CNCCCN(C)C)c3)c3ccccc3n2)c1` (as salt: (cooh)2) [Compound 1q, 2,4-Bis{3-[(3-dimethylaminopropyl)aminomethyl]phenyl}quinoline] yielded a melting point of 243 to 245 °C.

In turn, `COc1ccc2nc(-c3ccc(CNCCN(C)C)cc3)nc(-c3ccc(CNCCN(C)C)cc3)c2c1` (as salt: (cooh)2) [Compound 3j, 6-Methoxy-2,4-bis{4-[(2-dimethylaminoethyl)aminomethyl]phenyl}quinazoline] displayed a melting point of 233 to 235 °C.

`c1cc(CNCCCN2CCOCC2)cc(-c2nc(-c3cccc(CNCCCN4CCOCC4)c3)c3ccccc3n2)c1` (as salt: (cooh)2) [Compound 3u, 2,4-Bis{3-[(3-morpholinopropyl)aminomethyl]phenyl}quinazoline] came in with a melting point of 186 to 188 °C.

`c1ccc2c(-c3ccc(CNCCN4CCOCC4)cc3)cc(-c3ccc(CNCCN4CCOCC4)cc3)nc2c1` (as salt: (cooh)2) [Compound 1h, 2,4-Bis{4-[(2-morpholinoethyl)aminomethyl]phenyl}quinoline] displayed a melting point of 235 to 237 °C.

As to `CN(C)CCCNCc1cccc(-c2nc(-c3cccc(CNCCCN(C)C)c3)c3ccccc3n2)c1` (as salt: (cooh)2) [Compound 3s, 2,4-Bis{3-[(3-dimethylaminopropyl)aminomethyl]phenyl}quinazoline], the melting point was over 260 °C.

Regarding `CN1CCN(CCCCNCc2ccc(-c3cc4ccccc4c(-c4ccc(CNCCCCN5CCN(C)CC5)cc4)n3)cc2)CC1` (as salt: (cooh)2) [Compound 2c, 1,3-Bis{4-[(4–(4-methylpiperazin-1-yl)butyl)aminomethyl]phenyl}isoquinoline], the melting point was in the range of 181 to 183 °C.

`COc1ccc2cc(-c3ccc(CNCCCCN(C)C)cc3)nc(-c3ccc(CNCCCCN(C)C)cc3)c2c1` (as salt: (cooh)2) [Compound 2e, 7-Methoxy-1,3-bis{4-[(4-dimethylaminobutyl)aminomethyl]phenyl}isoquinoline] returned a melting point of 157 to 159 °C.

Compound `CN1CCN(CCCCNCc2ccc(-c3cc(-c4ccc(CNCCCCN5CCN(C)CC5)cc4)c4ccccc4n3)cc2)CC1` (as salt: (cooh)2) [Compound 1d, 2,4-Bis{4-[(4–(4-methylpiperazin-1-yl)butyl)aminomethyl]phenyl}quinoline] came in with a melting point of 225 to 227 °C.

In turn, `COc1ccc2cc(-c3ccc(CNCCCN(C)C)cc3)nc(-c3ccc(CNCCCN(C)C)cc3)c2c1` (as salt: (cooh)2) [Compound 2f, 7-Methoxy-1,3-bis{4-[(3-dimethylaminopropyl)aminomethyl]phenyl}isoquinoline] had a melting point of 178 to 180 °C.

One may read the IC50 as the point on the concentration scale where inhibition reaches its midpoint. In general, CC50 refers to the concentration that lowers cell viability or growth by half. For the compound `COc1ccc2cc(-c3ccc(CNCCCCN4CCN(C)CC4)cc3)nc(-c3ccc(CNCCCCN4CCN(C)CC4)cc3)c2c1` [Compound 2g, 7-Methoxy-1,3-bis{4-[(4–(4-methylpiperazin-1-yl)butyl)aminomethyl]phenyl}isoquinoline], in series [1], the “Selectivity index HepG2/Tryp.” value is 10.16 and the IC50 stood at 1 ± 0.261 µM. Besides, in series [2], the IC50 worked out at 7.61 ± 0.94 µM and the “Selectivity index HepG2/W2” value came out at 1.33. Further, in series [3], the IC50 amounted to 3.27 ± 0.31 µM and the “Selectivity index HepG2/3D7” value worked out at 3.11. In series [4], this compound returned an IC50 of at least 10 µM. In series [5], the CC50 at 72 h came to 10.2 ± 0.9 µM.

On to `COc1ccc2c(-c3ccc(CNCCCN4CCN(C)CC4)cc3)nc(-c3ccc(CNCCCN4CCN(C)CC4)cc3)cc2c1` [Compound 2l], for which the “Selectivity index HepG2/Tryp.” value in series [1] was 1.50. Further, the IC50 is 1.34 ± 0.088 µM in series [1], 9.6 ± 0.99 µM in series [2], 9.66 ± 1.2 µM in series [3] and at least 10 µM in series [4]. Also, the “Selectivity index HepG2/W2” value in series [2] amounted to 0.21. Moreover, the “Selectivity index HepG2/3D7” value in series [3] is on record as 0.21. Moreover, the CC50 at 72 h in series [5] came out at 2.01 ± 0.2 µM.

As for `COc1ccc2c(-c3ccc(CNCCCN4CCN(C)CC4)cc3)nc(-c3ccc(CNCCCN4CCN(C)CC4)cc3)nc2c1` [Compound 3q, 7-Methoxy-2,4-bis{4-[(3–(4-methylpiperazin-1-yl)propyl)aminomethyl]phenyl}quinazoline], in series [1], the “Selectivity index HepG2/Tryp.” value stood at 0.74 and the IC50 stood at 1.71 ± 0.145 µM. In series [2], the IC50 stood at 11.5 ± 1.05 µM and the “Selectivity index HepG2/W2” value worked out at 0.11. In addition, in series [3], the IC50 is 10.4 ± 0.58 µM and the “Selectivity index HepG2/3D7” value amounted to 0.12. For the same compound, in series [4], the IC50 was at least 10 µM. Moreover, it took 1.27 ± 0.5 µM to reach half-maximal cytotoxicity in series [5] (CC50 at 72 h).

With `CN1CCN(CCCNCc2ccc(-c3cc4ccccc4c(-c4ccc(CNCCCN5CCN(C)CC5)cc4)n3)cc2)CC1` [Compound 2d, 1,3-Bis{4-[(3–(4-methylpiperazin-1-yl)propyl)aminomethyl]phenyl}isoquinoline], in series [1], the “Selectivity index HepG2/Tryp.” value came out at 11.60 and the IC50 is 1.28 ± 0.122 µM. Also, in series [2], the IC50 was found to be 5.46 ± 0.44 µM and the “Selectivity index HepG2/W2” value was 2.72. In series [3], the IC50 came to 5.77 ± 0.67 µM and the “Selectivity index HepG2/3D7” value is on record as 2.57. For the same compound, in series [4], the IC50 is at least 10 µM. In series [5], half-maximal cytotoxicity (CC50 at 72 h) was put at 14.8 ± 1.1 µM.

Consider `COc1ccc2c(-c3ccc(CNCCCCN4CCN(C)CC4)cc3)cc(-c3ccc(CNCCCCN4CCN(C)CC4)cc3)nc2c1` [Compound 1o, 7-Methoxy-2,4-bis{4-[(4–(4-methylpiperazin-1-yl)butyl)aminomethyl]phenyl}quinoline], for which, in series [1], the “Selectivity index HepG2/Tryp.” value worked out at 2.96 and the concentration for half-maximal inhibition (IC50) was found to be 1.12 ± 0.118 µM. In series [2], the IC50 was determined as 2.26 ± 0.48 µM and the “Selectivity index HepG2/W2” value stood at 1.47. In series [3], the IC50 came out at 2.41 ± 0.08 µM and the “Selectivity index HepG2/3D7” value was found to be 1.38. Further, the IC50 in series [4] was at least 10 µM. Also, in series [5], half-maximal cytotoxicity (CC50 at 72 h) was put at 3.32 ± 0.5 µM.

Take `COc1ccc2c(-c3ccc(CNCCN(C)C)cc3)nc(-c3ccc(CNCCN(C)C)cc3)nc2c1` [Compound 3o, 7-Methoxy-2,4-bis{4-[(2-dimethylaminoethyl)aminomethyl]phenyl}quinazoline]: the “Selectivity index HepG2/Tryp.” value in series [1] was 1.52. Besides, the IC50 in series [1] was 0.75 ± 0.121 µM; in series [2] it was 0.99 ± 0.09 µM; in series [3] it was 0.61 ± 0.03 µM; in series [4] it was at least 10 µM. Moreover, the “Selectivity index HepG2/W2” value in series [2] was found to be 1.15. Moreover, in series [3], the “Selectivity index HepG2/3D7” value was determined as 1.87. The same compound registered a CC50 at 72 h in series [5] of 1.14 ± 0.4 µM.
